Data from PubChem BioAssay (NCI).
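Cells were grown in 96-well plates and exposed to each compound for 48 hours at five concentrations; endpoints were interpolated linearly between bracketing concentrations, or set to the highest concentration if not reached. GI50 = concentration required for 50% inhibition of growth. At the TGI there is no net growth.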

Tests used:
Experiment in all cases: growth of human tumour cells (NCI), 48 h
MDA-MB-435 = test system: MDA-MB-435
HT29 colon = test system: HT29 colon
MOLT-4 leukemia = test system: MOLT-4 leukemia
BT-549 breast = test system: BT-549 breast
PC-3 prostate = test system: PC-3 prostate
TK-10 renal = test system: TK-10 renal
A549 NSCLC = test system: A549 NSCLC
M14 melanoma = test system: M14 melanoma
RPMI-8226 leukemia = test system: RPMI-8226 leukemia
MCF7 breast = test system: MCF7 breast

CCN1C(=O)N(CC)C2C1NN=c1s/c(=C\c3ccccc3F)c(=O)n12 (stereo not drawn)
GI50 (MDA-MB-435): 14.8 nM | TGI (MDA-MB-435): 0.052 µM | GI50 (HT29 colon): 31.9 nM | GI50 (MOLT-4 leukemia): 41.9 nM | TGI (MOLT-4 leukemia): > 100 µM | GI50 (BT-549 breast): 35.8 nM | TGI (BT-549 breast): > 93.3 µM | GI50 (PC-3 prostate): 40 nM | TGI (PC-3 prostate): > 100 µM | GI50 (TK-10 renal): 1.68 µM | TGI (TK-10 renal): > 63.6 µM | GI50 (A549 NSCLC): 0.0419 µM | TGI (A549 NSCLC): > 100 µM | GI50 (M14 melanoma): 31.1 nM | TGI (M14 melanoma): > 100 µM | GI50 (RPMI-8226 leukemia): 41.5 nM | TGI (RPMI-8226 leukemia): > 37.7 µM | GI50 (MCF7 breast): 0.0325 µM | TGI (MCF7 breast): > 63.6 µM

O=C1/C(=C\c2ccc(F)cc2)CN(C(=O)c2ccc([N+](=O)[O-])cc2)C/C1=C\c1ccc(F)cc1
GI50 (MDA-MB-435): 1830 nM | TGI (MDA-MB-435): > 27.7 µM | GI50 (HT29 colon): 517 nM | TGI (HT29 colon): 3.52 µM | GI50 (MOLT-4 leukemia): 2700 nM | TGI (MOLT-4 leukemia): > 85.2 µM | GI50 (BT-549 breast): 2000 nM | TGI (BT-549 breast): 4.41 µM | GI50 (PC-3 prostate): 2140 nM | TGI (PC-3 prostate): 14.5 µM | GI50 (TK-10 renal): 5.05 µM | TGI (TK-10 renal): 82.7 µM | GI50 (A549 NSCLC): 3.63 µM | TGI (A549 NSCLC): > 77.3 µM | GI50 (M14 melanoma): 2280 nM | TGI (M14 melanoma): 6.81 µM | GI50 (RPMI-8226 leukemia): 302 nM | TGI (RPMI-8226 leukemia): 1.62 µM | GI50 (MCF7 breast): 0.389 µM | TGI (MCF7 breast): 4.19 µM

NCCCCCCCCn1c2c(c3ccccc3c1=O)C(=O)c1ccccc1-2
GI50 (MDA-MB-435): 5630 nM | TGI (MDA-MB-435): 21.5 µM | GI50 (HT29 colon): 1860 nM | TGI (HT29 colon): 4.02 µM | GI50 (MOLT-4 leukemia): 1820 nM | TGI (MOLT-4 leukemia): 3.53 µM | GI50 (BT-549 breast): 5180 nM | TGI (BT-549 breast): 23.3 µM | GI50 (PC-3 prostate): 5050 nM | TGI (PC-3 prostate): 23.3 µM | GI50 (TK-10 renal): 1.93 µM | TGI (TK-10 renal): 3.88 µM | GI50 (A549 NSCLC): 8.93 µM | TGI (A549 NSCLC): 50.8 µM | GI50 (M14 melanoma): 3400 nM | TGI (M14 melanoma): 10.4 µM | GI50 (RPMI-8226 leukemia): 4020 nM | TGI (RPMI-8226 leukemia): 23.7 µM | GI50 (MCF7 breast): 7.45 µM | TGI (MCF7 breast): 46.2 µM

Cc1ncc(C(=O)Nc2ccc(CN3CCN(C)CC3)c(C(F)(F)F)c2)cc1C#Cc1cnc(N)c2cnccc12
GI50 (MDA-MB-435): 26.1 nM | TGI (MDA-MB-435): 4.11 µM | GI50 (HT29 colon): 21 nM | TGI (HT29 colon): 1.19 µM | GI50 (MOLT-4 leukemia): 41.2 nM | TGI (MOLT-4 leukemia): 4.98 µM | GI50 (BT-549 breast): 841 nM | TGI (BT-549 breast): 10.7 µM | GI50 (PC-3 prostate): 225 nM | TGI (PC-3 prostate): 16.3 µM | GI50 (TK-10 renal): 0.132 µM | TGI (TK-10 renal): 1.93 µM | GI50 (A549 NSCLC): 0.202 µM | TGI (A549 NSCLC): 4.87 µM | GI50 (M14 melanoma): 22.5 nM | TGI (M14 melanoma): 0.17 µM | GI50 (RPMI-8226 leukemia): 249 nM | TGI (RPMI-8226 leukemia): 2.13 µM | GI50 (MCF7 breast): 1.18 µM | TGI (MCF7 breast): 3.69 µM

O=C(CCCCCCCn1cc(-c2cccnc2)nn1)Nc1ccccc1-c1ccccc1
GI50 (MDA-MB-435): 305 nM | TGI (MDA-MB-435): 13.2 µM | GI50 (HT29 colon): 506 nM | TGI (HT29 colon): > 100 µM | GI50 (MOLT-4 leukemia): 2310 nM | TGI (MOLT-4 leukemia): 23.4 µM | GI50 (BT-549 breast): 1440 nM | TGI (BT-549 breast): 25.6 µM | GI50 (PC-3 prostate): 430 nM | TGI (PC-3 prostate): 36.7 µM | GI50 (TK-10 renal): 17.4 µM | TGI (TK-10 renal): > 100 µM | GI50 (A549 NSCLC): 1.15 µM | TGI (A549 NSCLC): > 100 µM | GI50 (M14 melanoma): 91.4 nM | TGI (M14 melanoma): 16.5 µM | GI50 (RPMI-8226 leukemia): 401 nM | TGI (RPMI-8226 leukemia): > 77.9 µM | GI50 (MCF7 breast): 3.36 µM | TGI (MCF7 breast): 51.5 µM

Cc1cccc(-c2nn3c(c2-c2ccnc4ccc(C(N)=O)cc24)CCC3)n1
GI50 (MDA-MB-435): > 91400 nM | TGI (MDA-MB-435): > 100 µM | GI50 (HT29 colon): 52500 nM | TGI (HT29 colon): > 100 µM | GI50 (MOLT-4 leukemia): > 100000 nM | TGI (MOLT-4 leukemia): > 100 µM | GI50 (BT-549 breast): > 100000 nM | TGI (BT-549 breast): > 100 µM | GI50 (PC-3 prostate): > 100000 nM | TGI (PC-3 prostate): > 100 µM | GI50 (TK-10 renal): > 100 µM | TGI (TK-10 renal): > 100 µM | GI50 (A549 NSCLC): > 100 µM | TGI (A549 NSCLC): > 100 µM | GI50 (M14 melanoma): > 91900 nM | TGI (M14 melanoma): > 100 µM | GI50 (RPMI-8226 leukemia): > 100000 nM | TGI (RPMI-8226 leukemia): > 100 µM | GI50 (MCF7 breast): > 100 µM | TGI (MCF7 breast): > 100 µM

COc1cccc(Cn2c(-c3nonc3N)nc3ccccc32)c1
GI50 (MDA-MB-435): 201 nM | TGI (MDA-MB-435): 0.549 µM | GI50 (HT29 colon): 345 nM | GI50 (MOLT-4 leukemia): 632 nM | TGI (MOLT-4 leukemia): > 100 µM | GI50 (BT-549 breast): 365 nM | TGI (BT-549 breast): 68.5 µM | GI50 (PC-3 prostate): 435 nM | TGI (PC-3 prostate): > 84.2 µM | GI50 (TK-10 renal): 0.728 µM | TGI (TK-10 renal): 52.4 µM | GI50 (A549 NSCLC): 0.625 µM | TGI (A549 NSCLC): > 100 µM | GI50 (M14 melanoma): 532 nM | TGI (M14 melanoma): > 100 µM | GI50 (RPMI-8226 leukemia): 377 nM | TGI (RPMI-8226 leukemia): > 100 µM | GI50 (MCF7 breast): 0.383 µM | TGI (MCF7 breast): > 100 µM

COc1ccccc1-c1cc(/C=C2\C(=O)Nc3ncc(Br)cc32)cc(Br)c1O
GI50 (MDA-MB-435): 7470 nM | TGI (MDA-MB-435): > 25 µM | GI50 (HT29 colon): 18900 nM | TGI (HT29 colon): > 25 µM | GI50 (MOLT-4 leukemia): 9310 nM | TGI (MOLT-4 leukemia): > 25 µM | GI50 (BT-549 breast): 14200 nM | TGI (BT-549 breast): > 25 µM | GI50 (PC-3 prostate): 9180 nM | TGI (PC-3 prostate): > 25 µM | GI50 (TK-10 renal): 9.95 µM | TGI (TK-10 renal): > 25 µM | GI50 (A549 NSCLC): 11.8 µM | TGI (A549 NSCLC): > 25 µM | GI50 (M14 melanoma): 12900 nM | TGI (M14 melanoma): > 25 µM | GI50 (RPMI-8226 leukemia): 9590 nM | TGI (RPMI-8226 leukemia): > 25 µM | GI50 (MCF7 breast): 8.05 µM | TGI (MCF7 breast): > 25 µM

Fc1ccc(-c2nn3c(CNc4ccccc4)nnc3s2)cc1
GI50 (MDA-MB-435): 18700 nM | TGI (MDA-MB-435): 51.6 µM | GI50 (HT29 colon): 39200 nM | TGI (HT29 colon): > 100 µM | GI50 (MOLT-4 leukemia): 27000 nM | TGI (MOLT-4 leukemia): > 100 µM | GI50 (BT-549 breast): 39100 nM | TGI (BT-549 breast): > 100 µM | GI50 (PC-3 prostate): 31000 nM | TGI (PC-3 prostate): > 100 µM | GI50 (TK-10 renal): 30.2 µM | TGI (TK-10 renal): > 100 µM | GI50 (A549 NSCLC): 36.7 µM | TGI (A549 NSCLC): > 100 µM | GI50 (M14 melanoma): 35500 nM | TGI (M14 melanoma): > 100 µM | GI50 (RPMI-8226 leukemia): 6990 nM | TGI (RPMI-8226 leukemia): > 100 µM | GI50 (MCF7 breast): 60.2 µM | TGI (MCF7 breast): > 100 µM

Sc1ccc2ccccc2c1CNCc1ccccc1
TGI (MDA-MB-435): 29.9 µM | TGI (HT29 colon): > 100 µM | TGI (MOLT-4 leukemia): 6.59 µM | TGI (BT-549 breast): 48.7 µM | TGI (PC-3 prostate): > 100 µM | TGI (TK-10 renal): > 100 µM | TGI (A549 NSCLC): > 100 µM | TGI (M14 melanoma): 27.6 µM | TGI (RPMI-8226 leukemia): 31.9 µM | TGI (MCF7 breast): > 100 µM
